Patent publication US20140314857A1, “FORMULATIONS FOR ENHANCED BIOAVAILABILITY OF ZANAMIVIR” (priority 2012, published 2014)
Where “and” joins values, the source holds several entries; their conditions need not be identical. Equal entries are not always repeated.

Experiments:
[1] = Intravenous and intraduodenal bioavailability of zanamivir from three formulations (Example 5); conditions: for C0: extrapolated to t = 0; for concentration at 0.25 hr / concentration at 0.5 hr / concentration at 0.83 hr / concentration at 1 hr / concentration at 1.5 hr / concentration at 2 hr / concentration at 0.033 hr / concentration at 0.083 hr: 1.5 mg/animal, Plasma concentration; for clearance: CL; for Vd: Vss
Description: Male Sprague-Dawley rats (Hilltop Labs), 3 animals per treatment group, 250-350 grams in weight, were fitted with a jugular vein cannula (JVC). Animals intended for intraduodenal dosing were also fitted with one or more intraduodenal cannula (IDC) and those intended for intravenous dosing were fitted with a second JVC. Food was withheld from the animals for a minimum of twelve hours prior to test article administration and was returned approximately four hours post-dose. Water was supplied ad libitum.
Intraduodenal doses composed of 1.5 mg of zanamivir and varying amounts of an enhancer (glycerol or Capmul MCM L8) were injected directly into the duodenum via the IDC. Intravenous dosing was conducted by the injection of 1.5 mg of zanamivir in 200 μL of PBS through a JVC. For some experiments, the absorption enhancer was administered intraduodenally 2 hr prior to administering 1.5 mg of zanamivir in PBS through a second IDC. Each intraduodenal dose was followed with the introduction of a small air bubble (˜10 μL) in the cannula followed by a flush of 125 μL of PBS to ensure the dose was given in full. The volume of PBS used for cannula flush was consistent across the treatment groups. The cannula was tied to prevent the PBS remaining in the cannula from entering the duodenum.
Blood samples collected via the JVC, approximately 400 μL each, were obtained at 2 min, 5 min, 15 min, 30 min, 60 min, 90 min, and 120 min, with sodium heparin used as an anti-coagulant. Each sample was placed into a chilled tube containing the anticoagulant and kept on ice until centrifugation at 4° C., 3,000×g, for 5 min. The plasma supernatants were stored at −70° C. until LC-MS analysis.
Dosing solution samples were assayed by LC-MS/MS using electrospray ionization. The chromatographic system consisted of Perkin Elmer series 200 micropumps and autosampler equipped with a Waters Atlantic® HILIC Silica 3 μM, 2.1×50 mm column. The mass spectrometer was a PE Sciex API 4000 with electrospray interface in multiple reaction monitoring mode. […] Stock solutions (1 mg/mL zanamivir) were prepared in water. Standards (eight concentrations) were prepared in the appropriate matched matrix (HBSSg or Sprague-Dawley rat plasma containing sodium heparin) and diluted 50-fold with methanol. Experimental samples were treated identically.
Standards and samples were prepared in Sprague Dawley rat plasma containing sodium heparin as an anticoagulant. An eight-point calibration curve was prepared at concentrations of 1000, 750, 500, 250, 100, 50, 25, and 10 ng/mL by serial dilution. Standard samples were treated identically to the study samples.
Plasma samples were extracted by protein precipitation in methanol.
In this example, the bioavailability of Zanamivir was evaluated after intravenous and intraduodenal doses in male Sprague-Dawley rats. The test compound was dosed at 1.5 mg/animal through intravenous and intraduodenal routes from different formulations. Plasma levels were determined by LC-MS/MS analysis. Pharmacokinetic parameters were estimated by a non-compartmental model using WinNonlin v4.1 software.

[2] = Express IV formulation development: solubility screening in normal saline; assay type: physicochemical; conditions: saline or isotonic, thermodynamic from solid, NS, visual observation after vortexing
Experimental: The following procedure and potential dosing vehicles were evaluated, and the results are described. The target concentrations of 5 mg/mL were investigated. 1. Weigh 2-5 mg of the zanamivir into a 4 mL glass vial. 2. Add the appropriate volume of normal saline. 3. Vortex, record observations of the formulation. 4. Take an aliquot and dilute it 5-fold with NS. 5. Record observations of the formulation. 6. End of the procedure.

[3] = IV 1.5 mg/animal, Normal Saline, Ex.5, individual rats
[4] = male, Sprague-Dawley, rat, in vivo, ID 1.5 mg/animal, Capmul MCM L8 50 µL, Ex.5, mean
[5] = male, Sprague-Dawley, rat, in vivo, ID 1.5 mg/animal, Glycerol 50 µL, individual rats
[6] = male, Sprague-Dawley, rat, in vivo, ID 1.5 mg/animal, Glycerol 50 µL, mean
[7] = male, Sprague-Dawley, rat, in vivo, ID 1.5 mg/animal, PBS 50 µL, mean
[8] = male, Sprague-Dawley, rat, in vivo, ID 1.5 mg/animal, PBS 50 µL, individual rats
[9] = male, Sprague-Dawley, rat, in vivo, ID 1.5 mg/animal, PBS, 50 µL blank glycerol -2 hr, individual rats
[10] = male, Sprague-Dawley, rat, in vivo, ID 1.5 mg/animal, PBS, 50 µL blank glycerol -2 hr, mean
[11] = male, Sprague-Dawley, rat, in vivo, iv, 1.5 mg, IV 1.5 mg/animal, Normal Saline, Ex.5, individual rats
[12] = male, Sprague-Dawley, rat, in vivo, iv, 1.5 mg, IV 1.5 mg/animal, Normal Saline, Ex.5, mean
[13] = male, Sprague-Dawley, rat, in vivo, iv, IV 1.5 mg/animal, Normal Saline, Ex.5, individual rats
[14] = male, Sprague-Dawley, rat, in vivo, iv, IV 1.5 mg/animal, Normal Saline, Ex.5, mean

For CC(=O)NC1C(NC(=N)N)C=C(C(=O)O)OC1C(O)C(O)CO (centres unmarked) [Zanamivir, 5-acetamido-4-guanidino-6-(1,2,3-trihydroxypropyl)-5,6-dihydro-4H-pyran-2-carboxylic acid], the T1/2 ([1]; ID 1.5 mg/animal, Capmul MCM L8 50 µL, Ex.5, individual rats) was 27 min and 33 min, the t1/2 ([1]; ID 1.5 mg/animal, PBS, 50 µL blank glycerol -2 hr, individual rats) was 39.6 min and 110 min and the Plasma concentration ([1]; IV 1.5 mg/animal, Normal Saline, Ex.5, 0.083 hr, individual rats) was 17900 ng/mL and 16300 ng/mL. For the same molecule, the C0 [1, 3] was 26943 ng/mL and 32278 ng/mL, the CL [1, 3] was 7.83 mL/min/kg and 8.67 mL/min/kg and the Vss [1, 3] was 0.26 L/kg. It also gave a t1/2 [1, 3] of 27.6 min, a half-life ([1]; male, Sprague-Dawley, rat, in vivo, 1.5 mg, T1/2, ID 1.5 mg/animal, Capmul MCM L8 50 µL, Ex.5, individual rats) of 28.2 min and a half-life ([1]; male, Sprague-Dawley, rat, in vivo, 1.5 mg, T1/2, ID 1.5 mg/animal, Capmul MCM L8 50 µL, Ex.5, mean) of 29.4 min. The half-life ([1]; male, Sprague-Dawley, rat, in vivo, 1.5 mg, t1/2, ID 1.5 mg/animal, Glycerol 50 µL, individual rats) was 17.4 min, the half-life ([1]; male, Sprague-Dawley, rat, in vivo, 1.5 mg, t1/2, ID 1.5 mg/animal, Glycerol 50 µL, mean) was 17.4 min and the half-life ([1]; male, Sprague-Dawley, rat, in vivo, 1.5 mg, t1/2, ID 1.5 mg/animal, PBS 50 µL, individual rats) was 49.8 min. The half-life ([1]; male, Sprague-Dawley, rat, in vivo, 1.5 mg, t1/2, ID 1.5 mg/animal, PBS 50 µL, mean) was 49.8 min, the half-life ([1]; male, Sprague-Dawley, rat, in vivo, 1.5 mg, t1/2, ID 1.5 mg/animal, PBS, 50 µL blank glycerol -2 hr, mean) was 74.4 min and the Tmax ([1]; male, Sprague-Dawley, rat, in vivo, 1.5 mg, ID 1.5 mg/animal, Glycerol 50 µL, mean) was 30 min. The Tmax ([1]; male, Sprague-Dawley, rat, in vivo, 1.5 mg, ID 1.5 mg/animal, PBS 50 µL, individual rats) was 30 min, the Tmax ([1]; male, Sprague-Dawley, rat, in vivo, 1.5 mg, ID 1.5 mg/animal, PBS 50 µL, mean) was 30 min and the Tmax ([1]; male, Sprague-Dawley, rat, in vivo, 1.5 mg, ID 1.5 mg/animal, PBS, 50 µL blank glycerol -2 hr, mean) was 34.8 min. The concentration at 0.25 hr [1, 4] was 4350 ng/mL, the concentration at 0.5 hr [1, 4] was 2910 ng/mL and the concentration at 0.83 hr [1, 4] was 7230 ng/mL. It also gave a concentration at 1 hr [1, 4] of 1080 ng/mL, a concentration at 1.5 hr [1, 4] of 578 ng/mL and a concentration at 2 hr [1, 4] of 274 ng/mL. It also gave a concentration at 0.25 hr [1, 5] of 1060 ng/mL, a concentration at 0.25 hr [1, 6] of 928 ng/mL and a concentration at 0.5 hr [1, 5] of 817 ng/mL. It also gave a concentration at 0.5 hr [1, 6] of 744 ng/mL, a concentration at 0.83 hr [1, 5] of 123 ng/mL and a concentration at 0.83 hr [1, 6] of 102 ng/mL. For the same molecule, the concentration at 1 hr [1, 6] was 415 ng/mL, the concentration at 1.5 hr [1, 5] was 123 ng/mL and the concentration at 1.5 hr [1, 6] was 93 ng/mL. The concentration at 2 hr [1, 5] was 52.1 ng/mL, the concentration at 2 hr [1, 6] was 61 ng/mL and the concentration at 0.25 hr [1, 7] was 96 ng/mL. It also gave a concentration at 0.5 hr [1, 7] of 134 ng/mL, a concentration at 0.83 hr [1, 7] of 38.7 ng/mL and a concentration at 1 hr [1, 7] of 86.4 ng/mL. The concentration at 1.5 hr [1, 8] was 59.6 ng/mL, the concentration at 1.5 hr [1, 7] was 61.1 ng/mL and the concentration at 2 hr [1, 8] was 60.2 ng/mL. It also gave a concentration at 2 hr [1, 7] of 52.1 ng/mL, a concentration at 0.25 hr [1, 9] of 60.9 ng/mL and a concentration at 0.25 hr [1, 10] of 59.3 ng/mL. For the same molecule, the concentration at 0.5 hr [1, 10] was 66.3 ng/mL, the concentration at 0.83 hr [1, 9] was 55.3 ng/mL and the concentration at 0.83 hr [1, 10] was 52.2 ng/mL. The concentration at 1 hr [1, 10] was 63.7 ng/mL, the concentration at 1.5 hr [1, 10] was 47.5 ng/mL and the concentration at 2 hr [1, 10] was 51.4 ng/mL. For the same molecule, the bioavailability ([1]; male, Sprague-Dawley, rat, in vivo, inherent absolute bioavailability) was under 2%, the C0 ([1]; male, Sprague-Dawley, rat, in vivo, iv, 1.5 mg, C0, IV 1.5 mg/animal, Normal Saline, Ex.5, individual rats) was 33400 ng/mL and the C0 ([1]; male, Sprague-Dawley, rat, in vivo, iv, 1.5 mg, C0, IV 1.5 mg/animal, Normal Saline, Ex.5, mean) was 30900 ± 3440 ng/mL. It also gave a clearance [1, 11] of 8.17 mL/min/kg, a clearance [1, 12] of 8.17 mL/min/kg and a Vd [1, 11] of 0.21 L/kg. The Vd [1, 12] was 0.24 ± 0.02 L/kg, the half-life ([1]; male, Sprague-Dawley, rat, in vivo, iv, 1.5 mg, t1/2, IV 1.5 mg/animal, Normal Saline, Ex.5, individual rats) was 30.6 min and the half-life ([1]; male, Sprague-Dawley, rat, in vivo, iv, 1.5 mg, t1/2, IV 1.5 mg/animal, Normal Saline, Ex.5, mean) was 29.4 ± 1.8 min. The Tmax [1, 11] was 0 min, the Tmax [1, 12] was 0 min and the concentration at 0.033 hr [1, 13] was 26900 ng/mL. The concentration at 0.033 hr [1, 14] was 24800 ng/mL, the concentration at 0.083 hr ([1]; male, Sprague-Dawley, rat, in vivo, iv, IV 1.5 mg/animal, Normal Saline, Ex.5, 0.083 hr, individual rats) was 19400 ng/mL and the concentration at 0.083 hr ([1]; male, Sprague-Dawley, rat, in vivo, iv, IV 1.5 mg/animal, Normal Saline, Ex.5, 0.083 hr, mean) was 17900 ng/mL. The concentration at 0.25 hr [1, 13] was 11700 ng/mL, the concentration at 0.25 hr [1, 14] was 11200 ng/mL and the concentration at 0.5 hr [1, 13] was 6610 ng/mL. It also gave a concentration at 0.5 hr [1, 14] of 6450 ng/mL, a concentration at 1 hr [1, 13] of 1650 ng/mL and a concentration at 1 hr [1, 14] of 2100 ng/mL. For the same molecule, the concentration at 1.5 hr [1, 13] was 709 ng/mL, the concentration at 1.5 hr [1, 14] was 817 ng/mL and the concentration at 2 hr [1, 13] was 423 ng/mL. For the same molecule, the concentration at 2 hr [1, 14] was 513 ng/mL and the solubility [2] was at least 5000 µg/mL.
